In US12012417B2, “N-substituted tetrahydrothienopyridine derivatives and uses thereof” (NOVARTIS AG, priority 2018, dated 2024) one finds EC50 data, which are given here for 21 compounds.

Molecules are shown by their SMILES.

Assay [1] relates to Dengue 1 virus MY97-10245. In words: High-content imaging cell-based flavivirus immunodetection (HCl-CFI) assay, Dengue 1. The following applies: Dengue virus, A549, 48 h, read-out: Dengue 1 virus MY97-10245 in A549 using HCl [Inhibitor/IC50] Qualified AC50.
The test system of assay [2] is Dengue 2 virus MY97-10340. Put plainly: High-content imaging cell-based flavivirus immunodetection (HCl-CFI) assay, Dengue 2. The following applies: Dengue virus, A549, 48 h, read-out: Dengue 2 virus MY97-10340 in A549 using HCl [Inhibitor/IC50] Qualified AC50, A549 cells, MOI 0.3, 48 h, viral E protein expression. The procedure, abridged:
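A549 cells infected at MOI 0.3, treated with 3-fold, 10-point compound dilutions for 48 h. After paraformaldehyde fixation, viral E protein immunostained with 4G2 antibody and nuclei counterstained; imaged by high-content imaging. EC50 = concentration reducing E protein expression by 50%, from dose-response curves.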

Assay [3] relates to Dengue 3 virus MY05-34640-WT-C6/36. Put plainly: High-content imaging cell-based flavivirus immunodetection (HCl-CFI) assay, Dengue 3. The following applies: Dengue virus, A549, 48 h, read-out: Dengue 3 virus MY05-34640-WT-C6/36 in A549 using HCl [Inhibitor/IC50] Qualified AC50.
The test system of assay [4] is Dengue 4 virus MY01-22713. Put plainly: High-content imaging cell-based flavivirus immunodetection (HCl-CFI) assay, Dengue 4. The following applies: Dengue virus, A549, 48 h, read-out: Dengue 4 virus MY01-22713 in A549 using HCl [Inhibitor/IC50] Qualified AC50, A549 cells, 48 h, viral E protein expression.

Consider `N#Cc1c(NC(=O)Cc2ccc(S(N)(=O)=O)cc2)sc2c1CCN(Cc1cc(F)cc(F)c1)C2` [Example 93, N-(3-cyano-6-(3,5-difluorobenzyl)-4,5,6,7-tetrahydrothieno[2,3-c]pyridin-2-yl)-2-(4-sulfamoylphenyl) acetamide], for which the EC50 in assay [1] was 100 to 1000 nM; in assay [2], under 100 nM; in assay [3], under 100 nM; in assay [4], under 100 nM.
With `N#Cc1c(NC(=O)Cc2ccc(CS(N)(=O)=O)cc2)sc2c1CN(CC1CCCCC1)CC2` [Example 17, N-(3-cyano-5-(cyclohexylmethyl)-4,5,6,7-tetrahydrothieno[3,2-c]pyridin-2-yl)-2-(4-(sulfamoylmethyl)phenyl)acetamide], the EC50 was 100 to 1000 nM in assay [1], under 100 nM in assay [2], under 100 nM in assay [3] and under 100 nM in assay [4].
Turning to `COCCOc1cc(CC(=O)Nc2sc3c(c2C#N)CN(Cc2cccc(F)c2)C(C)C3)ccc1S(N)(=O)=O` (stereo not drawn) [Example 86, N-(3-cyano-5-(3-fluorobenzyl)-6-methyl-4,5,6,7-tetrahydrothieno[3,2-c]pyridin-2-yl)-2-(3-(2-methoxyethoxy)-4-sulfamoylphenyl)acetamide], the EC50 was 100 to 1000 nM in assay [1], under 100 nM in assay [2], under 100 nM in assay [3] and under 100 nM in assay [4].
In the case of `CC(O)(c1ccc(CC(=O)Nc2sc3c(c2C#N)CN(CC2CCCCC2)CC3)cc1)C(F)(F)F` (stereo not drawn) [Example 8, N-(3-cyano-5-(cyclohexylmethyl)-4,5,6,7-tetrahydrothieno[3,2-c]pyridin-2-yl)-2-(4-(1,1,1-trifluoro-2-hydroxypropan-2-yl)phenyl)acetamide], the EC50 is over 1000 nM in assay [1], 100 to 1000 nM in assay [2], 100 to 1000 nM in assay [3] and 100 to 1000 nM in assay [4].
Regarding `Cc1cccc(CN2CCc3c(sc(NC(=O)Cc4ccc(S(N)(=O)=O)cc4)c3C#N)C2)c1` [Example 102, N-(3-cyano-6-(3-methylbenzyl)-4,5,6,7-tetrahydrothieno[2,3-c]pyridin-2-yl)-2-(4-sulfamoylphenyl)acetamide], the EC50 in assay [1] is over 1000 nM; in assay [2], 100 to 1000 nM; in assay [3], 100 to 1000 nM; in assay [4], 100 to 1000 nM.
With `N#Cc1c(NC(=O)Cc2ccc3c(c2)S(=O)(=O)NC3)sc2c1CN(Cc1cccc(F)c1)CC2` [Example 25, N-(3-cyano-5-(3-fluorobenzyl)-4,5,6,7-tetrahydrothieno[3,2-c]pyridin-2-yl)-2-(1,1-dioxido-2,3-dihydrobenzo[d]isothiazol-6-yl)acetamide], the EC50 is 100 to 1000 nM in assay [1], under 100 nM in assay [2], under 100 nM in assay [3] and under 100 nM in assay [4].
With `CC1Cc2sc(NC(=O)Cc3ccc(S(C)(=O)=O)cc3)c(C#N)c2CN1Cc1cccc(F)c1` (stereo not drawn) [Example 69, N-(3-cyano-5-(3-fluorobenzyl)-6-methyl-4,5,6,7-tetrahydrothieno[3,2-c]pyridin-2-yl)-2-(4-(methylsulfonyl)phenyl)acetamide], the EC50 was 100 to 1000 nM in assay [1], under 100 nM in assay [2], under 100 nM in assay [3] and under 100 nM in assay [4].
`N#Cc1c(NC(=O)Cc2ccc(S(N)(=O)=O)cc2)sc2c1CCN(Cc1cc(F)ccc1F)C2` [Example 113, N-(3-cyano-6-(2,5-difluorobenzyl)-4,5,6,7-tetrahydrothieno[2,3-c]pyridin-2-yl)-2-(4-sulfamoylphenyl)acetamide]: the EC50 was 100 to 1000 nM in assay [1], under 100 nM in assay [2], under 100 nM in assay [3] and under 100 nM in assay [4].
`N#Cc1c(NC(=O)Cc2ccc(S(N)(=O)=O)cc2)sc2c1CN(Cc1cccc(F)c1)CC2` [Example 5, N-(3-cyano-5-(3-fluorobenzyl)-4,5,6,7-tetrahydrothieno[3,2-c]pyridin-2-yl)-2-(4-sulfamoylphenyl)acetamide]: the EC50 in assay [1] was 100 to 1000 nM; in assay [2], under 100 nM; in assay [3], under 100 nM; in assay [4] it was under 100 nM.
On to `N#Cc1c(NC(=O)Cc2ccc(S(N)(=O)=O)cc2)sc2c1CCN(CC1CCCCC1)C2` [Example 92, N-(3-cyano-6-(cyclohexylmethyl)-4,5,6,7-tetrahydrothieno[2,3-c]pyridin-2-yl)-2-(4-sulfamoylphenyl) acetamide], for which the EC50 in assay [1] is 100 to 1000 nM; in assay [2] it was under 100 nM; in assay [3], 100 to 1000 nM; in assay [4], under 100 nM.
For the compound `N#Cc1c(NC(=O)Cc2ccc(S(N)(=O)=O)cc2)sc2c1CN(CC1CC(F)(F)C1)CC2` [Example 2, N-(3-cyano-5-((3,3-difluorocyclobutyl)methyl)-4,5,6,7-tetrahydrothieno[3,2-c]pyridin-2-yl)-2-(4-sulfamoylphenyl)acetamide], the EC50 is over 1000 nM in assay [1], 100 to 1000 nM in assay [2], 100 to 1000 nM in assay [3] and 100 to 1000 nM in assay [4].
As to `CCC1Cc2sc(NC(=O)Cc3ccc(S(N)(=O)=O)cc3)c(C#N)c2CN1Cc1cccc(F)c1` (stereo not drawn) [Example 87, N-(3-cyano-6-ethyl-5-(3-fluorobenzyl)-4,5,6,7-tetrahydrothieno[3,2-c]pyridin-2-yl)-2-(4-sulfamoylphenyl)acetamide], the EC50 was 100 to 1000 nM in assay [1], under 100 nM in assay [2], under 100 nM in assay [3] and under 100 nM in assay [4].
In the case of `COc1cc(CC(=O)N(C)c2sc3c(c2C#N)CN(CC2CCCCC2)CC3)ccc1S(N)(=O)=O` [Example 48, N-(3-cyano-5-(cyclohexylmethyl)-4,5,6,7-tetrahydrothieno[3,2-c]pyridin-2-yl)-2-(3-methoxy-4-sulfamoylphenyl)-N-methylacetamide], the EC50 in assay [1], in assay [2], in assay [3] and in assay [4] was over 1000 nM in each case.
Turning to `CCC1(CC)Cc2sc(NC(=O)Cc3ccc(S(N)(=O)=O)cc3)c(C#N)c2CN1CC1CCCCC1` [Example 76, N-(3-cyano-5-(cyclohexylmethyl)-6,6-diethyl-4,5,6,7-tetrahydrothieno[3,2-c]pyridin-2-yl)-2-(4-sulfamoylphenyl)acetamide], the EC50 in assay [1], in assay [2], in assay [3] and in assay [4] was under 100 nM each time.
For the compound `CC1Cc2sc(NC(=O)Cc3ccc(S(=O)(=O)NCC4CCCCC4)cc3)c(C#N)c2CN1CC1CCCCC1` (stereo not drawn) [Example 63, N-(3-cyano-5-(cyclohexylmethyl)-6-methyl-4,5,6,7-tetrahydrothieno[3,2-c]pyridin-2-yl)-2-(4-(N-(cyclohexylmethyl)sulfamoyl)phenyl)acetamide], the EC50 in assay [1] is over 1000 nM; in assay [2] it was 100 to 1000 nM; in assay [3], 100 to 1000 nM; in assay [4], 100 to 1000 nM.
With `CC1Cc2sc(NC(=O)Cc3ccc(S(N)(=O)=O)cc3)c(C#N)c2CN1CCC1CCCCC1` (stereo not drawn) [Example 68, N-(3-cyano-5-(2-cyclohexylethyl)-6-methyl-4,5,6,7-tetrahydrothieno[3,2-c]pyridin-2-yl)-2-(4-sulfamoylphenyl)acetamide], the EC50 was 100 to 1000 nM in assay [1], under 100 nM in assay [2], under 100 nM in assay [3] and under 100 nM in assay [4].
Consider `N#Cc1c(NC(=O)Cc2ccc(S(N)(=O)=O)cc2)sc2c1CCN(Cc1c(Cl)cccc1Cl)C2` [Example 112, N-(3-cyano-6-(2,6-dichlorobenzyl)-4,5,6,7-tetrahydrothieno[2,3-c]pyridin-2-yl)-2-(4-sulfamoylphenyl)acetamide], for which the EC50 in assay [1] was over 1000 nM; in assay [2], 100 to 1000 nM; in assay [3] it was 100 to 1000 nM; in assay [4], under 100 nM.
Take `CN(C)S(=O)(=O)c1ccc(CC(=O)Nc2sc3c(c2C#N)CN(Cc2cccc(F)c2)CC3)cc1` [Example 47, N-(3-cyano-5-(3-fluorobenzyl)-4,5,6,7-tetrahydrothieno[3,2-c]pyridin-2-yl)-2-(4-(N,N-dimethylsulfamoyl)phenyl)acetamide]: the EC50 was 100 to 1000 nM in assay [1], under 100 nM in assay [2], under 100 nM in assay [3] and 100 to 1000 nM in assay [4].
In the case of `N#Cc1c(NC(=O)Cc2ccc(S(N)(=O)=O)cc2)sc2c1CCN(Cc1ccc(F)c(F)c1)C2` [Example 105, N-(3-cyano-6-(3,4-difluorobenzyl)-4,5,6,7-tetrahydrothieno[2,3-c]pyridin-2-yl)-2-(4-sulfamoylphenyl)acetamide], the EC50 in assay [1] is over 1000 nM; in assay [2], 100 to 1000 nM; in assay [3], 100 to 1000 nM; in assay [4], 100 to 1000 nM.
Turning to `CS(=O)(=O)Cc1ccc(CC(=O)Nc2sc3c(c2C#N)CN(Cc2cccc(F)c2)CC3)cc1` [Example 32, N-(3-cyano-5-(3-fluorobenzyl)-4,5,6,7-tetrahydrothieno[3,2-c]pyridin-2-yl)-2-(4-((methylsulfonyl)methyl)phenyl)acetamide], the EC50 in assay [1] is 100 to 1000 nM; in assay [2], 100 to 1000 nM; in assay [3], under 100 nM; in assay [4] it was under 100 nM.
On to `COc1ccccc1CN1CCc2c(sc(NC(=O)Cc3ccc(S(N)(=O)=O)cc3)c2C#N)C1` [Example 94, N-(3-cyano-6-(2-methoxybenzyl)-4,5,6,7-tetrahydrothieno[2,3-c]pyridin-2-yl)-2-(4-sulfamoylphenyl) acetamide], for which the EC50 in assay [1] is over 1000 nM; in assay [2], over 1000 nM; in assay [3], 100 to 1000 nM; in assay [4], 100 to 1000 nM.
